According to US11661413B2, “Pyrazole compounds or salts thereof, preparation method therefor, herbicidal composition and use thereof” (priority 2015, dated 2023):

Legend:
[1] = test system: Barnyard grass; assay: weed control effect in post emergence stage, greenhouse pot spray; format: in vivo; details: sprayed at 2-3 leaf stage, after 3 weeks
Procedure: (§1) The activity level standard of harmful plant damage (i.e. growth inhibition rate) is as follows: The above described growth control rate is fresh weight control rate. Monocotyledonous and dicotyledonous weed seeds and main crop seeds (i.e. wheat, corn, rice, soybean, cotton, oilseed, millet and Sorghum) were put into a plastic pot loaded with soil. Then covered with 0.5-2 cm soil, the seeds were allowed to grow in good greenhouse environment. The test plants were treated at 2-3 leaf stage 2-3 weeks after sowing. […] The solution was sprayed to the plants with a sprayer. Then the plants were cultured for 3 weeks in the greenhouse.

[2] = test system: Flixweed; assay: as above; format: in vivo; details: 16 g/mu, sprayed at 2-3 leaf stage, after 3 weeks
Procedure: as §1

[3] = test system: Barnyard grass; assay: weed control effect in transplanted rice field (pot, water application); format: in vivo, Echinochloa; details: 500 g a.i./ha, treated at 0.5 leaf stage, 14 days after treatment, naked eye, weed resistant to pyrazosulfuron-ethyl; also: key: 10: completely dead; above 90% growth inhibition rate; above 80% growth inhibition rate; above 70% growth inhibition rate; above 60% growth inhibition rate; above 50% growth inhibition rate; 4: above 30% growth inhibition rate; above 30% growth inhibition rate; above 20% growth inhibition rate; above 1-10% growth inhibition rate; 0: no effect
Procedure: (§2) Rice field soil was loaded into a 1/1,000,000 ha pot. The seeds of Echinochloa, Scirpus juncoides, Bidens tripartite and Sagittaria trifolia were sowed and gently covered with soil, then left to stand still in greenhouse in the state of 0.5-1 cm of water storage. The tuber of Sagittaria trifolia was planted in the next day or 2 days later. It was kept at 3-4 cm of water storage thereafter. The weeds were treated by dripping the WP or SC water diluents prepared according to the common preparation method of the compounds of the present invention with pipette homogeneously to achieve specified effective amount when Echinochloa, Scirpus juncoides and Bidens tripartite reached 0.5 leaf stage and Sagittaria trifolia reached the time point of primary leaf stage.
(§3) The fertility condition of Echinochloa, Scirpus juncoides, Bidens tripartite and Sagittaria trifolia 14 days after the treatment of the compound of the invention and the fertility condition of rice 21 days after the treatment of the compound of the invention respectively with the naked eye.
(§4) Note: The seeds of barnyard grass, rushlike bulrush, arrowhead and beggartick are collected from Heilongjing Province of China. Tests indicate that the weeds are resistant to common application rate of pyrazosulfuron-ethyl.

[4] = test system: rushlike bulrush; assay: as above; format: in vivo, Scirpus juncoides; details: 500 g a.i./ha, treated at 0.5 leaf stage, 14 days after treatment, naked eye, weed resistant to pyrazosulfuron-ethyl
Procedure: as §2, §3, §4

[5] = test system: Beggartick; assay: as above; format: in vivo, Bidens tripartite; details: 500 g a.i./ha, treated at 0.5 leaf stage, 14 days after treatment, naked eye, weed resistant to pyrazosulfuron-ethyl
Procedure: as §2, §3, §4

[6] = test system: Arrowhead; assay: as above; format: in vivo, Sagittaria trifolia; details: 500 g a.i./ha, treated at primary leaf stage, 14 days after treatment, naked eye, weed resistant to pyrazosulfuron-ethyl
Procedure: as §2, §3, §4

[7] = test system: Ning Jing 43; assay: post emergence stage greenhouse pot spray, rice safety; format: in vivo; set-up: key: 10: completely dead; above 90% growth inhibition rate; above 80% growth inhibition rate; above 70% growth inhibition rate; above 60% growth inhibition rate; above 50% growth inhibition rate; 4: above 30% growth inhibition rate; above 30% growth inhibition rate; above 20% growth inhibition rate; above 1-10% growth inhibition rate; 0: no effect; details: sprayed at 2-3 leaf stage, after 3 weeks
Procedure: as §1

[8] = test system: Corn; assay: post emergence stage greenhouse pot spray, corn safety; format: in vivo; details: 16 g/mu, sprayed at 2-3 leaf stage, after 3 weeks; also: key: 10: completely dead; above 90% growth inhibition rate; above 80% growth inhibition rate; above 70% growth inhibition rate; above 60% growth inhibition rate; above 50% growth inhibition rate; 4: above 30% growth inhibition rate; above 30% growth inhibition rate; above 20% growth inhibition rate; above 1-10% growth inhibition rate; 0: no effect
Procedure: as §1

[9] = test system: Wheat; assay: post emergence stage greenhouse pot spray, wheat safety; format: in vivo; details: 16 g/mu, sprayed at 2-3 leaf stage, after 3 weeks; also: key: 10: completely dead; above 90% growth inhibition rate; above 80% growth inhibition rate; above 70% growth inhibition rate; above 60% growth inhibition rate; above 50% growth inhibition rate; 4: above 30% growth inhibition rate; above 30% growth inhibition rate; above 20% growth inhibition rate; above 1-10% growth inhibition rate; 0: no effect
Procedure: as §1

[10] = test system: Rice; assay: transplanted rice safety evaluation; format: in vivo; details: transplanted 3 leaf stage japonica rice, 500 g a.i./ha, treated 5 days after transplantation, 21 days after treatment, naked eye
Procedure: In addition, the rice field soil that loaded into the 1/1,000,000 ha pot was leveled to keep water storage at 3-4 cm depth. The 3 leaf stage rice (japonica rice) was transplanted at 3 cm of transplanting depth the next day. The compound of the present invention was treated by the same way after 5 days of transplantation.
as §3

SMILES | weed control effect (activity level), Barnyard grass ([1]; 1 g/mu) | weed control effect (activity level), Barnyard grass ([1]; 2 g/mu) | weed control effect (activity level), Barnyard grass ([1]; 4 g/mu) | weed control effect (activity level), Barnyard grass ([1]; 8 g/mu) | weed control effect (activity level), Barnyard grass ([1]; 16 g/mu) | weed control effect (activity level), Flixweed [2] | weed control effect (activity level), Barnyard grass [3] | weed control effect (activity level), rushlike bulrush [4] | weed control effect (activity level), Beggartick [5] | weed control effect (activity level), Arrowhead [6] | damage (activity level), Ning Jing 43 ([7]; 1 g/mu) | damage (activity level), Ning Jing 43 ([7]; 2 g/mu) | damage (activity level), Ning Jing 43 ([7]; 4 g/mu) | damage (activity level), Ning Jing 43 ([7]; 8 g/mu) | damage (activity level), Ning Jing 43 ([7]; 16 g/mu) | damage (activity level), Corn [8] | damage (activity level), Wheat [9] | damage (activity level), Rice [10]
Cc1cc(C)n(Cc2c(S(C)(=O)=O)ccc(C(=O)c3c(C)nn(C)c3O)c2Cl)n1 [Compound 4] | 3 (above 30% growth inhibition rate) | 4 (above 30% growth inhibition rate) | 5 (above 50% growth inhibition rate) | 5 (above 50% growth inhibition rate) | 7 (above 70% growth inhibition rate) | 10 | 10 | 10 | 9 (above 90% growth inhibition rate) | 9 (above 90% growth inhibition rate) | – | – | – | – | – | – | – | –
CCOC(=O)Oc1c(C(=O)c2ccc(S(C)(=O)=O)c(Cn3cc(C)cn3)c2Cl)c(C)nn1C [Compound 31] | 3 (above 30% growth inhibition rate) | 5 (above 50% growth inhibition rate) | 6 (above 60% growth inhibition rate) | 8 (above 80% growth inhibition rate) | 9 (above 90% growth inhibition rate) | 10 | 10 | 10 | 10 | 9 (above 90% growth inhibition rate) | 0 | 0 | 0 | 0 | 0 | 0 | 0 | 1 (above 1-10% growth inhibition rate)
Cc1ccc(S(=O)(=O)Oc2c(C(=O)c3ccc(S(C)(=O)=O)c(Cn4nc(C)cc4C)c3Cl)c(C)nn2C)cc1 [Compound 33] | 4 (above 30% growth inhibition rate) | 6 (above 60% growth inhibition rate) | 5 (above 50% growth inhibition rate) | 7 (above 70% growth inhibition rate) | 8 (above 80% growth inhibition rate) | 10 | 10 | 10 | 10 | 10 | 0 | 0 | 0 | 0 | 0 | 0 | 0 | 1 (above 1-10% growth inhibition rate)
Cc1ccn(Cc2c(S(C)(=O)=O)ccc(C(=O)c3cnn(C)c3O)c2Cl)n1 [Compound 8] | 2 (above 20% growth inhibition rate) | 2 (above 20% growth inhibition rate) | 4 (above 30% growth inhibition rate) | 7 (above 70% growth inhibition rate) | 8 (above 80% growth inhibition rate) | 10 | – | – | – | – | – | – | – | – | – | – | – | –
CCCCCOc1c(C(=O)c2ccc(S(C)(=O)=O)c(Cn3nc(C)cc3C)c2Cl)c(C)nn1C [Compound 38] | 0 | 1 (above 1-10% growth inhibition rate) | 1 (above 1-10% growth inhibition rate) | 2 (above 20% growth inhibition rate) | 2 (above 20% growth inhibition rate) | 2 (above 20% growth inhibition rate) | – | – | – | – | – | – | – | – | – | – | – | –
Cc1cc(C)n(Cc2c(S(C)(=O)=O)ccc(C(=O)c3c(C)nn(C)c3OCC(=O)OC(C)(C)C)c2Cl)n1 [Compound 35] | 3 (above 30% growth inhibition rate) | 3 (above 30% growth inhibition rate) | 4 (above 30% growth inhibition rate) | 4 (above 30% growth inhibition rate) | 5 (above 50% growth inhibition rate) | 10 | 10 | 10 | 10 | 9 (above 90% growth inhibition rate) | – | – | – | – | – | – | – | –
CCc1nn(C)c(O)c1C(=O)c1ccc(S(C)(=O)=O)c(Cn2cc(Cl)cn2)c1Cl [Compound 5] | 2 (above 20% growth inhibition rate) | 2 (above 20% growth inhibition rate) | 4 (above 30% growth inhibition rate) | 7 (above 70% growth inhibition rate) | 8 (above 80% growth inhibition rate) | 10 | 10 | 10 | 10 | 10 | – | – | – | – | – | – | – | –
CCOC(=O)Oc1c(C(=O)c2ccc(S(C)(=O)=O)c(Cn3nc(C)cc3C)c2Cl)c(C)nn1C [Compound 36] | 2 (above 20% growth inhibition rate) | 3 (above 30% growth inhibition rate) | 4 (above 30% growth inhibition rate) | 4 (above 30% growth inhibition rate) | 5 (above 50% growth inhibition rate) | 10 | – | – | – | – | – | – | – | – | – | – | – | –
Cc1cnn(Cc2c(S(C)(=O)=O)ccc(C(=O)c3c(C)nn(C)c3O)c2Cl)c1 [Compound 1] | 4 (above 30% growth inhibition rate) | 7 (above 70% growth inhibition rate) | 8 (above 80% growth inhibition rate) | 10 | 10 | 10 | 10 | 10 | 9 (above 90% growth inhibition rate) | 8 (above 80% growth inhibition rate) | – | – | – | – | – | – | – | –
Cc1cc(C)n(Cc2c(S(C)(=O)=O)ccc(C(=O)c3c(C4CC4)nn(C)c3O)c2Cl)n1 [Compound 13] | 2 (above 20% growth inhibition rate) | 2 (above 20% growth inhibition rate) | 2 (above 20% growth inhibition rate) | 5 (above 50% growth inhibition rate) | 7 (above 70% growth inhibition rate) | 10 | 10 | 9 (above 90% growth inhibition rate) | 9 (above 90% growth inhibition rate) | 9 (above 90% growth inhibition rate) | – | – | – | – | – | – | – | –
CCn1ncc(C(=O)c2ccc(S(C)(=O)=O)c(Cn3cc(C)cn3)c2Cl)c1O [Compound 19] | 2 (above 20% growth inhibition rate) | 3 (above 30% growth inhibition rate) | 3 (above 30% growth inhibition rate) | 4 (above 30% growth inhibition rate) | 4 (above 30% growth inhibition rate) | 10 | – | – | – | – | – | – | – | – | – | – | – | –
